Experimental data as given in the NIST ThermoML archive (doi:10.1016/j.fluid.2018.01.025).
Numbers after ± are expanded uncertainties.

Assays:
[1] = 101.33 kPa, Liquid; for speed of sound: Frequency=2 MHz, Linear variable-path acoustic interferometer; for mass density: Vibrating tube method
[2] = xn = mol fraction of the nth substance listed; conditions: 101 kPa, Liquid; for speed of sound: Frequency=2 MHz, Linear variable-path acoustic interferometer; for mass density: Vibrating tube method

Structure (SMILES): Nc1cccc(Cl)c1 [3-chlorobenzenamine]
- speed of sound ([1]; 303.15 K): 1516 ± 2 m/s
- mass density ([1]; 303.15 K): 1205.75 ± 0.58 kg/m3
- mass density ([1]; 308.15 K): 1201.14 ± 0.58 kg/m3
- speed of sound ([1]; 313.15 K): 1484 ± 2 m/s
- mass density ([1]; 313.15 K): 1196.56 ± 0.58 kg/m3
- mass density ([1]; 318.15 K): 1191.98 ± 0.57 kg/m3
- mass density ([1]; 323.15 K): 1187.41 ± 0.57 kg/m3

Structure (SMILES): Nc1cccc(Cl)c1 [3-chlorobenzenamine] + OCc1ccccc1
- speed of sound ([2]; 303.15 K, x2 = 0.1021): 1515.4 ± 9.3 m/s
- speed of sound ([2]; 303.15 K, x2 = 0.2037): 1514.9 ± 9.3 m/s
- speed of sound ([2]; 303.15 K, x2 = 0.3048): 1514.5 ± 9.2 m/s
- speed of sound ([2]; 303.15 K, x2 = 0.4055): 1514.1 ± 9.2 m/s
- speed of sound ([2]; 303.15 K, x2 = 0.5057): 1513.7 ± 9.2 m/s
- speed of sound ([2]; 303.15 K, x2 = 0.6054): 1513.3 ± 9.2 m/s
- speed of sound ([2]; 303.15 K, x2 = 0.7048): 1512.9 ± 9.2 m/s
- speed of sound ([2]; 303.15 K, x2 = 0.8036): 1512.6 ± 9.2 m/s
- speed of sound ([2]; 303.15 K, x2 = 0.902): 1512.3 ± 9.2 m/s
- mass density ([2]; 303.15 K, x2 = 0.1021): 1189.69 ± 0.54 kg/m3
- mass density ([2]; 303.15 K, x2 = 0.2037): 1173.42 ± 0.51 kg/m3
- mass density ([2]; 303.15 K, x2 = 0.3048): 1156.94 ± 0.49 kg/m3
- mass density ([2]; 303.15 K, x2 = 0.4055): 1140.31 ± 0.47 kg/m3
- mass density ([2]; 303.15 K, x2 = 0.5057): 1123.48 ± 0.45 kg/m3
- mass density ([2]; 303.15 K, x2 = 0.6054): 1106.48 ± 0.44 kg/m3
- mass density ([2]; 303.15 K, x2 = 0.7048): 1089.33 ± 0.43 kg/m3
- mass density ([2]; 303.15 K, x2 = 0.8036): 1072.05 ± 0.42 kg/m3
- mass density ([2]; 303.15 K, x2 = 0.902): 1054.66 ± 0.41 kg/m3
- mass density ([2]; 308.15 K, x2 = 0.1021): 1184.95 ± 0.54 kg/m3
- mass density ([2]; 308.15 K, x2 = 0.2037): 1168.65 ± 0.51 kg/m3
- mass density ([2]; 308.15 K, x2 = 0.3048): 1152.15 ± 0.49 kg/m3
- mass density ([2]; 308.15 K, x2 = 0.4055): 1135.57 ± 0.46 kg/m3
- mass density ([2]; 308.15 K, x2 = 0.5057): 1118.82 ± 0.45 kg/m3
- mass density ([2]; 308.15 K, x2 = 0.6054): 1101.95 ± 0.44 kg/m3
- mass density ([2]; 308.15 K, x2 = 0.7048): 1084.96 ± 0.43 kg/m3
- mass density ([2]; 308.15 K, x2 = 0.8036): 1067.86 ± 0.42 kg/m3
- mass density ([2]; 308.15 K, x2 = 0.902): 1050.79 ± 0.41 kg/m3
- speed of sound ([2]; 313.15 K, x2 = 0.1021): 1484.3 ± 9.1 m/s
- speed of sound ([2]; 313.15 K, x2 = 0.2037): 1484.6 ± 9.1 m/s
- speed of sound ([2]; 313.15 K, x2 = 0.3048): 1484.9 ± 9.1 m/s
- speed of sound ([2]; 313.15 K, x2 = 0.4055): 1485.2 ± 9.1 m/s
- speed of sound ([2]; 313.15 K, x2 = 0.5057): 1485.5 ± 9.1 m/s
- speed of sound ([2]; 313.15 K, x2 = 0.6054): 1485.8 ± 9.1 m/s
- speed of sound ([2]; 313.15 K, x2 = 0.7048): 1486.1 ± 9 m/s
- speed of sound ([2]; 313.15 K, x2 = 0.8036): 1486.4 ± 9 m/s
- speed of sound ([2]; 313.15 K, x2 = 0.902): 1486.7 ± 9 m/s
- mass density ([2]; 313.15 K, x2 = 0.1021): 1180.24 ± 0.54 kg/m3
- mass density ([2]; 313.15 K, x2 = 0.2037): 1163.79 ± 0.51 kg/m3
- mass density ([2]; 313.15 K, x2 = 0.3048): 1147.27 ± 0.48 kg/m3
- mass density ([2]; 313.15 K, x2 = 0.4055): 1130.63 ± 0.46 kg/m3
- mass density ([2]; 313.15 K, x2 = 0.5057): 1113.94 ± 0.45 kg/m3
- mass density ([2]; 313.15 K, x2 = 0.6054): 1097.12 ± 0.43 kg/m3
- mass density ([2]; 313.15 K, x2 = 0.7048): 1080.3 ± 0.42 kg/m3
- mass density ([2]; 313.15 K, x2 = 0.8036): 1063.4 ± 0.42 kg/m3
- mass density ([2]; 313.15 K, x2 = 0.902): 1046.44 ± 0.41 kg/m3
- mass density ([2]; 318.15 K, x2 = 0.1021): 1175.53 ± 0.54 kg/m3
- mass density ([2]; 318.15 K, x2 = 0.2037): 1159.09 ± 0.51 kg/m3
- mass density ([2]; 318.15 K, x2 = 0.3048): 1142.57 ± 0.48 kg/m3
- mass density ([2]; 318.15 K, x2 = 0.4055): 1125.95 ± 0.46 kg/m3
- mass density ([2]; 318.15 K, x2 = 0.5057): 1109.34 ± 0.45 kg/m3
- mass density ([2]; 318.15 K, x2 = 0.6054): 1092.63 ± 0.43 kg/m3
- mass density ([2]; 318.15 K, x2 = 0.7048): 1075.88 ± 0.42 kg/m3
- mass density ([2]; 318.15 K, x2 = 0.8036): 1059.13 ± 0.42 kg/m3
- mass density ([2]; 318.15 K, x2 = 0.902): 1042.37 ± 0.41 kg/m3
- mass density ([2]; 323.15 K, x2 = 0.1021): 1170.9 ± 0.53 kg/m3
- mass density ([2]; 323.15 K, x2 = 0.2037): 1154.36 ± 0.5 kg/m3
- mass density ([2]; 323.15 K, x2 = 0.3048): 1137.82 ± 0.48 kg/m3
- mass density ([2]; 323.15 K, x2 = 0.4055): 1121.26 ± 0.46 kg/m3
- mass density ([2]; 323.15 K, x2 = 0.5057): 1104.71 ± 0.44 kg/m3
- mass density ([2]; 323.15 K, x2 = 0.6054): 1088.14 ± 0.43 kg/m3
- mass density ([2]; 323.15 K, x2 = 0.7048): 1071.54 ± 0.42 kg/m3
- mass density ([2]; 323.15 K, x2 = 0.8036): 1054.96 ± 0.42 kg/m3
- mass density ([2]; 323.15 K, x2 = 0.902): 1038.37 ± 0.41 kg/m3

Structure (SMILES): CN(C)c1ccccc1 [N,N-dimethylaniline]
- speed of sound ([1]; 303.15 K): 1470 ± 2 m/s
- mass density ([1]; 303.15 K): 948.18 ± 0.41 kg/m3
- mass density ([1]; 308.15 K): 943.55 ± 0.41 kg/m3
- speed of sound ([1]; 313.15 K): 1432 ± 2 m/s
- mass density ([1]; 313.15 K): 939.78 ± 0.41 kg/m3
- mass density ([1]; 318.15 K): 935.3 ± 0.41 kg/m3
- mass density ([1]; 323.15 K): 931.45 ± 0.41 kg/m3
